# Measurements as given in the supplement of paper PMC10307832.
# What was measured:
# Experiment in all cases: relative viability (nuclei count vs DMSO), 5 days (fraction); higher = more cells survive
# Irinotecan + Lapatinib = compound: CCc1c2c(nc3ccc(OC(=O)N4CCC(N5CCCCC5)CC4)cc13)-c1cc3c(c(=O)n1C2)COC(=O)[C@]3(O)CC [Irinotecan] + CS(=O)(=O)CCNCc1ccc(-c2ccc3ncnc(Nc4ccc(OCc5cccc(F)c5)c(Cl)c4)c3c2)o1 [Lapatinib] (partner 2 µM)
# Summary of the method: (§1)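 After 5 days of treatment, lung cancer cells in 1536-well plates were fixed and stained in a single step (final 0.05% Triton X-100, 1% formaldehyde, 1 ug/ml Hoechst) and their nuclei counted on 4× images. Treatment had been applied by pin tool the day after seeding as one drug alone or as a fixed anchor-drug dose with five library-drug doses (not always all listed) in √10 steps. Relative viability is the nuclei count of treated wells divided by that of vehicle wells, and values are medians of duplicate plates.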
# Irinotecan + Crizotinib = compound: CCc1c2c(nc3ccc(OC(=O)N4CCC(N5CCCCC5)CC4)cc13)-c1cc3c(c(=O)n1C2)COC(=O)[C@]3(O)CC [Irinotecan] + C[C@@H](Oc1cc(-c2cnn(C3CCNCC3)c2)cnc1N)c1c(Cl)ccc(F)c1Cl [Crizotinib] (partner 1 µM)
# Summary of the method: as §1
# MK-8033 + Dasatinib = compound: Cn1cc(-c2cnc3ccc4ccc(CS(=O)(=O)NCc5ccccn5)cc4c(=O)c3c2)cn1 [MK-8033] + Cc1nc(Nc2ncc(C(=O)Nc3c(C)cccc3Cl)s2)cc(N2CCN(CCO)CC2)n1 [Dasatinib] (partner 0.075 µM)
# Summary of the method: as §1
Cell Line,relative viability (Irinotecan + Lapatinib; first compound 0.6325 µM),relative viability (Irinotecan + Lapatinib; first compound 2 µM),relative viability (Irinotecan + Lapatinib; first compound 6.325 µM),relative viability (Irinotecan + Lapatinib; first compound 20 µM),relative viability (Irinotecan + Crizotinib; first compound 0.6325 µM),relative viability (Irinotecan + Crizotinib; first compound 2 µM),relative viability (Irinotecan + Crizotinib; first compound 6.325 µM),relative viability (Irinotecan + Crizotinib; first compound 20 µM),relative viability (MK-8033 + Dasatinib; first compound 0.02 µM),relative viability (MK-8033 + Dasatinib; first compound 0.2 µM),relative viability (MK-8033 + Dasatinib; first compound 0.6325 µM),relative viability (MK-8033 + Dasatinib; first compound 2 µM),relative viability (MK-8033 + Dasatinib; first compound 0.06325 µM)
LK-2,0.852,1.33,0.411,0.32,0.206,0.248,0.303,0.301,0.269,0.251,0.376,0.304,–
HCC-827,0.178,0.222,0.133,0.16,0.487,0.287,0.282,0.191,0.334,0.342,0.283,0.304,0.114
LCLC-97TM1,0.317,0.263,0.156,0.173,0.107,0.208,0.185,0.239,0.887,0.803,0.84,0.939,0.814
EMC-BAC-2,0.774,0.578,0.27,0.246,0.332,0.291,0.216,0.19,0.324,0.327,0.33,0.339,0.325
NCI-H647,0.865,0.44,0.199,0.138,0.852,0.365,0.227,0.198,0.164,0.188,0.197,0.173,0.164
NCI-H1944,0.563,0.369,0.178,0.187,0.561,0.323,0.231,0.254,0.205,0.221,0.202,0.234,0.201
PC-3 [JPC-3],0.3,0.45,0.311,0.316,0.847,0.493,0.332,0.331,0.935,0.948,1.02,0.966,0.939
SK-LU-1,0.46,0.503,0.321,0.312,0.404,0.572,0.474,0.463,0.153,0.182,0.185,0.191,0.224
NCI-H1975,0.86,0.689,0.302,0.14,0.914,1,0.401,0.329,0.329,0.357,–,0.343,0.344
NCI-H1299,0.721,0.693,0.399,0.203,0.747,0.794,0.453,0.173,–,–,–,–,–
IA-LM,0.426,0.26,0.134,0.0941,0.774,0.375,0.195,0.103,–,–,–,–,–
SW 900,–,–,–,–,–,–,–,–,0.378,0.476,0.907,0.424,0.394
NCI-H2342,–,–,–,–,–,–,–,–,0.329,0.35,0.33,0.352,0.277
ChaGo-K-1,–,–,–,–,–,0.849,0.47,0.402,0.603,0.527,0.66,0.641,0.588
A549,0.723,0.529,0.112,0.0497,0.621,0.511,0.143,0.0565,–,–,–,–,–
